Measured values taken from patent publication US20260365670A1, “EGFR INHIBITORS AND USES THEREOF” (DIZAL (JIANGSU) PHARMACEUTICAL CO., LTD., priority 2022, published 2026).
pIC50: −log10 of the molar value. Read-outs that look alike come from different tables or passages of the source.

Assays:
[1] = system: PC-9; assay: Cell proliferation assay, PC-9 cells (CellTiter-Glo, 72 hours); assay type: cell-based; settings: PC9 cells, CellTiter-Glo, read-out: PC9 GI50
Method in brief: (§1)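 GI50 is the concentration giving 50% proliferation inhibition. Growth for this was normalised to a baseline viability reading taken when compound was added, and to DMSO wells. PC-9 (500 cells/well) and mutant-EGFR Ba/F3 (5000 cells/well) are treated after overnight seeding in RPMI1640-based medium.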

[2] = biological target: T1, EGFR (C797S L858R) (Homo sapiens, UniProt P00533, C797S/L858R); assay: Inhibition of EGFR (C797S L858R) biochemical enzymatic activity (HTRF); settings: EGFR L858-C797S, 1 mM ATP, 1 h, room temperature, read-out: IC50 (nM) @L858-C797S
T1 construct: purchased signalchem
Method in brief: (§2)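 Enzyme preincubated with compound, then ATP (1 mM) and TK substrate-biotin (1 μM) added; 1 h RT; stopped with EDTA-containing detection mix; HTRF read (ex 320, em 615/665 nm); IC50 by 4-parameter logistic fit.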

[3] = biological target: T2, EGFR L858R/T790M (Homo sapiens, UniProt P00533, L858R/T790M); assay: Inhibition of EGFR L858R/T790M biochemical enzymatic activity (HTRF); settings: EGFR L858R-T790M, 1 mM ATP, 1 h, room temperature, read-out: IC50 (nM) @L858R-T790M
T2 construct: purchased Carna Bio
Method in brief: as §2

[4] = biological target: T3, EGFR Exon19Del/T790M (Homo sapiens, UniProt P00533, DEL746-750/T790M); assay: Inhibition of EGFR Exon19Del/T790M biochemical enzymatic activity (HTRF); settings: EGFR Del19-T790M, 1 mM ATP, 1 h, room temperature, read-out: IC50 (nM) @Del19-T790M
T3 construct: purchased Carna Bio
Method in brief: as §2

[5] = biological target: T4, EGFR wild type (Homo sapiens, UniProt P00533); assay: Inhibition of EGFR wild type biochemical enzymatic activity (HTRF); settings: EGFR WT, 1 mM ATP, 1 h, room temperature, read-out: IC50 (nM) @WT
T4 construct: purchased Carna Bio
Method in brief: as §2

[6] = biological target: T5, EGFR[T790M/C797S/d746-750] (Homo sapiens, UniProt P00533, C797S/DEL746-750/T790M); assay: Inhibition of EGFR[T790M/C797S/d746-750] biochemical enzymatic activity (HTRF); settings: EGFR T790M-C797S-Del19, 1 mM ATP, 1 h, room temperature, read-out: IC50 (nM) @T790M - C797S - Del19
T5 construct: purchased Carna Bio
Method in brief: as §2

[7] = biological target: T6, EGFR[T790M/C797S/L858R] (Homo sapiens, UniProt P00533, C797S/L858R/T790M); assay: Inhibition of EGFR[T790M/C797S/L858R] biochemical enzymatic activity (HTRF); settings: EGFR T790M-C797S-L858R, 1 mM ATP, 1 h, room temperature, read-out: IC50 (nM) @T790M- C797S - L858R
T6 construct: purchased Carna Bio
Method in brief: as §2

[8] = biological target: T7, EGFR Exon19Del (Homo sapiens, UniProt P00533, DEL746-750); assay: Inhibition of EGFR Exon19Del biochemical enzymatic activity (HTRF); settings: EGFR Del19, 1 mM ATP, 1 h, room temperature, read-out: IC50 @Del19
T7 construct: purchased Carna Bio
Method in brief: as §2

[9] = biological target: T8, EGFR L858R (Homo sapiens, UniProt P00533, L858R); assay: Inhibition of EGFR L858R biochemical enzymatic activity (HTRF); settings: 1 mM ATP, 1 h, room temperature, read-out: IC50 (nM) @L858R
T8 construct: purchased Carna Bio
Method in brief: as §2

[10] = system: Ba/F3 cells expressing EGFR mutations; assay: Cell proliferation assay, Ba/F3 cells expressing EGFR mutations (CellTiter-Glo, 72 hours); assay type: cell-based; settings: CellTiter-Glo
Method in brief: as §1

[11] = biological target: T9, EGFR (d746-750 C797S) (Homo sapiens, UniProt P00533, C797S/DEL746-750); assay: Inhibition of EGFR (d746-750 C797S) biochemical enzymatic activity (HTRF); settings: EGFR Del19-C797S, 1 mM ATP, 1 h, room temperature, read-out: IC50 (nM) @Del19-C797S
T9 construct: purchased signalchem
Method in brief: as §2

[12] = system: A-431; assay: Cell proliferation GI50, A-431 cells (Table 6); assay type: cell-based
[13] = Mus musculus, BaF3, 72 h, BaF3 cells, EGFR DEL19-C797S, read-out: DEL19-C797S/BaF3 GI50
[14] = Mus musculus, BaF3, 72 h, BaF3 cells, EGFR DEL19-T790-C797S, read-out: DEL19-T790-C797S/BaF3 GI50
[15] = Mus musculus, BaF3, 72 h, BaF3 cells, EGFR L858R, read-out: L858R/BaF3 GI50
[16] = Mus musculus, BaF3, 72 h, BaF3 cells, EGFR L858R-C797S, read-out: L858R-C797S/BaF3 GI50
[17] = Mus musculus, BaF3, 72 h, BaF3 cells, EGFR L858R-T790-C797S, read-out: L858R-T790-C797S/BaF3 GI50
[18] = Mus musculus, BaF3, 72 h, BaF3 cells, EGFR L858R-T790M, read-out: L858R-T790M/BaF3 GI50
[19] = Mus musculus, BaF3, 72 h, EGFR DEL19-T790M, read-out: DEL19-T790M GI50
[20] = Homo sapiens, A-431, A-431 cells

T5 sequence (P00533 with tags, fused parts or gaps DEL746-750/T790M/C797S limits assumed): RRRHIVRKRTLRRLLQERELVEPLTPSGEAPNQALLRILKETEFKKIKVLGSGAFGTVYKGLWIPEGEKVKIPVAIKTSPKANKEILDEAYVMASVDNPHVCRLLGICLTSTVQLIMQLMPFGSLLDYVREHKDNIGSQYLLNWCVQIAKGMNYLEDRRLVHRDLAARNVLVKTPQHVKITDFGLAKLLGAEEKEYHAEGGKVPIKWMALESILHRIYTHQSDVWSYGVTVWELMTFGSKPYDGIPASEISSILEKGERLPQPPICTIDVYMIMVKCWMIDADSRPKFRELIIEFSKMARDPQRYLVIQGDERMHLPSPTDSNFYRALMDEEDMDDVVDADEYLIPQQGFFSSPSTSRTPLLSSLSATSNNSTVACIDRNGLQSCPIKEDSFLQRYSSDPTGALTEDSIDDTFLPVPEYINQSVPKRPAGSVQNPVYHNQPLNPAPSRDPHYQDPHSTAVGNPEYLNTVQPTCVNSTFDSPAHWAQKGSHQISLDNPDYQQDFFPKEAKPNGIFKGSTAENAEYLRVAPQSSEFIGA
T8 sequence (P00533 25-1210 L858R): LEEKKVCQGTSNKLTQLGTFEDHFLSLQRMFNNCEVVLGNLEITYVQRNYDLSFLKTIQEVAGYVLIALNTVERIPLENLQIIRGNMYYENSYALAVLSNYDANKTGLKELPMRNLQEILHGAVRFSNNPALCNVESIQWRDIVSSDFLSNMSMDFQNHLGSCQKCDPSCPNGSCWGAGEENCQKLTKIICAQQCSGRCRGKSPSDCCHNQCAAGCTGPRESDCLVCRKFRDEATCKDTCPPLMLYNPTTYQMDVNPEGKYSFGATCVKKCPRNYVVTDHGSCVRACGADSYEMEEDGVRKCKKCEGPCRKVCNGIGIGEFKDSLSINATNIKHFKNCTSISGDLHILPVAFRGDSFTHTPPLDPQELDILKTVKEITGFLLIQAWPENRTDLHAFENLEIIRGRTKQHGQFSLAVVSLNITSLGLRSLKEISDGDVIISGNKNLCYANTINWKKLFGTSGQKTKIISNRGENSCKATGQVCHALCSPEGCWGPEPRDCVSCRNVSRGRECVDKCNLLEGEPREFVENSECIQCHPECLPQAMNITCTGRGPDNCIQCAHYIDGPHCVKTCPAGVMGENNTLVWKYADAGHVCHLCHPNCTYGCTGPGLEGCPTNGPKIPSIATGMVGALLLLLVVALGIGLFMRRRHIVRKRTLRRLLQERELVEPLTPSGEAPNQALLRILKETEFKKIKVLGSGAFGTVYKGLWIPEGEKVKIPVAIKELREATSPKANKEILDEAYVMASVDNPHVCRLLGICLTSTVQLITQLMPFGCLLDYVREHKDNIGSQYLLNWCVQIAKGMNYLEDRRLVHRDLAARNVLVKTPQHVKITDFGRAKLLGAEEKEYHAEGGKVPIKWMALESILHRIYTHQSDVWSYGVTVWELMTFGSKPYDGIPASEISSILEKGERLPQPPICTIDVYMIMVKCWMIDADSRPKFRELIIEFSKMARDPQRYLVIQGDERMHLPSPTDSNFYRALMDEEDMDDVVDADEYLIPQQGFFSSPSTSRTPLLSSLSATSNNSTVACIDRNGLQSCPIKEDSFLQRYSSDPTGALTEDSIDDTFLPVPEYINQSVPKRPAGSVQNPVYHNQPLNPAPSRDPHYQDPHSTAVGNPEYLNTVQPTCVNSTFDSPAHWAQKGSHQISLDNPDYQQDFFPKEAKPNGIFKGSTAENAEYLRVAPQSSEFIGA
T9 sequence (P00533 with tags, fused parts or gaps DEL746-750/C797S limits assumed): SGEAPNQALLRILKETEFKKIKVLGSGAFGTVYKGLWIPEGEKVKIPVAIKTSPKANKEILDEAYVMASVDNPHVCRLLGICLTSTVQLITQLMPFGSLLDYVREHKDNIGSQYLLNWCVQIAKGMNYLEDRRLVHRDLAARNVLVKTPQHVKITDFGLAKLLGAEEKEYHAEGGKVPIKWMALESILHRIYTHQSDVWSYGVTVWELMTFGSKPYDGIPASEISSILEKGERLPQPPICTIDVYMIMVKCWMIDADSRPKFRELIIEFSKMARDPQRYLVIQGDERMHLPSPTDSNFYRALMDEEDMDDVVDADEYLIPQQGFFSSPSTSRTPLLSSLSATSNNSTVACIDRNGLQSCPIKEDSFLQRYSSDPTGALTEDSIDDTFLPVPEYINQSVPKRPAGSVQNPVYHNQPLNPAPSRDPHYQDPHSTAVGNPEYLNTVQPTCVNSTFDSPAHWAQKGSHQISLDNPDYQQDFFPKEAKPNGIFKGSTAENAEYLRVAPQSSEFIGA
T7 sequence (P00533 with tags, fused parts or gaps DEL746-750 limits assumed): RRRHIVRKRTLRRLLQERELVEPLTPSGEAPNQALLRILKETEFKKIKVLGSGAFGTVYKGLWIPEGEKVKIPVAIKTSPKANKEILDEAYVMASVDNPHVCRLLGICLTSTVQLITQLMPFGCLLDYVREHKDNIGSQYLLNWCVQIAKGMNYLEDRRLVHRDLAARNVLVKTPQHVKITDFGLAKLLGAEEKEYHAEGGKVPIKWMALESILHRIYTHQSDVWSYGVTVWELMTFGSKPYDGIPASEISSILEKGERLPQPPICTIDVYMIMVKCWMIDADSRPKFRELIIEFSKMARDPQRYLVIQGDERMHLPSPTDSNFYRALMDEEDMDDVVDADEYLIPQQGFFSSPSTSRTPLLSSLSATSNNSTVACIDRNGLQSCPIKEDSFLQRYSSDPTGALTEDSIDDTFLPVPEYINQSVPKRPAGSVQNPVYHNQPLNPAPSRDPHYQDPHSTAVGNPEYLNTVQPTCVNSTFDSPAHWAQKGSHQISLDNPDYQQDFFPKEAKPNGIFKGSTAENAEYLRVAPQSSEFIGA
T3 sequence (P00533 with tags, fused parts or gaps DEL746-750/T790M limits assumed): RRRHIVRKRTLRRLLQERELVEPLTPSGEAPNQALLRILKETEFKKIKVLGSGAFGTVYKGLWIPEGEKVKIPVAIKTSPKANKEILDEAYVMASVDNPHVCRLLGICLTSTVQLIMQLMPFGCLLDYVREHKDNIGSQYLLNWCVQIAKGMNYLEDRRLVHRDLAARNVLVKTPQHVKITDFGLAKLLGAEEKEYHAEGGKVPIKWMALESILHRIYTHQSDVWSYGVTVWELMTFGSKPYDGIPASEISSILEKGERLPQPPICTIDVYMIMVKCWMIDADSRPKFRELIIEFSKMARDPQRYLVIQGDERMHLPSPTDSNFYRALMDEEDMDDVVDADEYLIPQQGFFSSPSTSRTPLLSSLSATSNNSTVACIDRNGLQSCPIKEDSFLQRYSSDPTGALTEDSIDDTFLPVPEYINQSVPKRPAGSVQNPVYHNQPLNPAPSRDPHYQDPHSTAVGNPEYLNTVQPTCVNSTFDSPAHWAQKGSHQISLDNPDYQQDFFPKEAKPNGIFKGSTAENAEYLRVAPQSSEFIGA
T6 sequence (P00533 25-1210 T790M/C797S/L858R): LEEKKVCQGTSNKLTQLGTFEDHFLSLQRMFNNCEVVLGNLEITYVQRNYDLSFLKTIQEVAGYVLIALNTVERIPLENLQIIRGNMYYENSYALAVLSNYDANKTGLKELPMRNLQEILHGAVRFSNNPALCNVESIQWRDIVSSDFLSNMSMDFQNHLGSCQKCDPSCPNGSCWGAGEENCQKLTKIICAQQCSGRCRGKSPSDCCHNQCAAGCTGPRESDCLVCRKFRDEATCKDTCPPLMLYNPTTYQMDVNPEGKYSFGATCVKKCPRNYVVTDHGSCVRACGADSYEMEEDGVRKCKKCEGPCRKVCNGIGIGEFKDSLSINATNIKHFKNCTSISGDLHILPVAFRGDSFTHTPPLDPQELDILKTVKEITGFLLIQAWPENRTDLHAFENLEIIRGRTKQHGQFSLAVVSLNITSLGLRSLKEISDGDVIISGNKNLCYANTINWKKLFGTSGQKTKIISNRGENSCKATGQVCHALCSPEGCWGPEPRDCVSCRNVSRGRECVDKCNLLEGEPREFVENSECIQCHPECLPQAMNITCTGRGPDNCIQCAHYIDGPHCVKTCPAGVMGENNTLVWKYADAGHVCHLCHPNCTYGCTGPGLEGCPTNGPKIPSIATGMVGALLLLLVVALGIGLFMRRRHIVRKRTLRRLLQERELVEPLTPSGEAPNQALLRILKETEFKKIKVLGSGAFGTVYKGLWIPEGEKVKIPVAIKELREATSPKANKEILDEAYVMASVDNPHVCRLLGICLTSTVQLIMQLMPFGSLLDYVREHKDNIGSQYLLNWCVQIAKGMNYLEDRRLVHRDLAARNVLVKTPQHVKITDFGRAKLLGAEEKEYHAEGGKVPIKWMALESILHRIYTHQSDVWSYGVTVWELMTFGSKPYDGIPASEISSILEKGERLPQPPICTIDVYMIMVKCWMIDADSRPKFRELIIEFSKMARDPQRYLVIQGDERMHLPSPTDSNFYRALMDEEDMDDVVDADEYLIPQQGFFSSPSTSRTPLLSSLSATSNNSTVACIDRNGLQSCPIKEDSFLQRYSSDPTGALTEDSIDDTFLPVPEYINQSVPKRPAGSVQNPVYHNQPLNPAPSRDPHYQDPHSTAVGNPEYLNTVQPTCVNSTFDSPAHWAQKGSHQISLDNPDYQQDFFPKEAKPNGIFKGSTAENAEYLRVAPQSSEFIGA

GI50 ([1]; Homo sapiens, PC-9, 72 h) | IC50 [2] | IC50 [3] | IC50 [4] | IC50 [5] | IC50 [6] | IC50 [7] | pIC50 [8] | IC50 [9] | GI50 [10, 13] | GI50 [10, 14] | GI50 [10, 15] | GI50 [10, 16] | GI50 [10, 17] | GI50 [10, 18] | GI50 [10, 19] | IC50 [11] | GI50 [12, 20] | SMILES | other results
29 nM | 146 nM | 8 nM | 1.8 nM | 2420 nM | 1.7 nM | 17 nM | 8.21 | 224 nM | 1.7 nM | 11 nM | 21 nM | 22 nM | 16 nM | 55 nM | 9.9 nM | 2.5 nM | 1790 nM | Cn1ncc2c1OCCN1CC3CCC(C3)(C1)n1c(nc3ccccc31)NC(=O)c1cc-2c(=O)n(C)c1 (stereo not drawn) [Example A61B, 15,21-Dimethyl-23-oxa-2,9,11,15,20,21,26-heptaazaheptacyclo[24.4.1.1^{1,28}.1^{13,17}.0^{2,10}.0^{3,8}.0^{18,22}]tritriaconta-3,5,7,9,13,17(33),18(22),19-octaene-12,16-dione] | –
– | 63 nM | 7.6 nM | 6.2 nM | 2040 nM | 6.3 nM | 7.3 nM | 8.02 | 144 nM | – | – | – | – | – | – | – | 3.8 nM | – | Cn1ncc2c1OCCN1CC3CCC(C3)(C1)n1c(nc3ccc(N4CCOCC4)cc31)NC(=O)c1cc-2c(=O)n(C)c1 (stereo not drawn) [Example A62] | GI50 [1]: 4.9 nM; GI50 ([10]; BaF3 cells, EGFR DEL19-C797S, read-out: DEL19-C797S/BaF3 GI50): 0.66 nM; GI50 ([10]; BaF3 cells, EGFR DEL19-T790-C797S, read-out: DEL19-T790-C797S/BaF3 GI50): 5.3 nM; GI50 ([10]; BaF3 cells, EGFR L858R, read-out: L858R/BaF3 GI50): 10 nM; GI50 ([10]; BaF3 cells, EGFR L858R-C797S, read-out: L858R-C797S/BaF3 GI50): 9.2 nM; GI50 ([10]; BaF3 cells, EGFR L858R-T790-C797S, read-out: L858R-T790-C797S/BaF3 GI50): 9.2 nM; GI50 ([10]; BaF3 cells, EGFR L858R-T790M, read-out: L858R-T790M/BaF3 GI50): 4.4 nM; GI50 ([10]; EGFR DEL19-T790M, read-out: DEL19-T790M GI50): 6.1 nM; GI50 ([12]; A-431 cells): 2370 nM
84 nM | 573 nM | 81 nM | 8.6 nM | > 5000 nM | 6.8 nM | 367 nM | 7.62 | 707 nM | 4.5 nM | 40 nM | 41 nM | 41 nM | 60 nM | 104 nM | 37 nM | 23 nM | 2370 nM | Cn1ncc2c1OCCN1CC3CCC(CC3)(C1)n1c(nc3ccc(N4CCOCC4)cc31)NC(=O)c1cc-2c(=O)n(C)c1 [Example A74, 15,21-Dimethyl-5-(morpholin-4-yl)-23-oxa-2,9,11,15,20,21,26-heptaazaheptacyclo[26.2.2.1^{1,26}.1^{13,17}.0^{2,10}.0^{3,8}.0^{18,22}]tetratriaconta-3,5,7,9,13,17(34),18(22),19-octaene-12,16-dione] | –
44 nM | 35 nM | 6 nM | 3.8 nM | 672 nM | 3.4 nM | 8 nM | 8.48 | 44 nM | 2.5 nM | 27 nM | 21 nM | 21 nM | 35 nM | 69 nM | 20 nM | 2.8 nM | 5420 nM | CN1CCN(c2ccc3nc4n(c3c2)C23CCC(CC2)CN(CCOc2c(cnn2C)-c2cc(cn(C)c2=O)C(=O)N4)C3)CC1 [Example A75, 15,21-Dimethyl-5-(4-methylpiperazin-1-yl)-23-oxa-2,9,11,15,20,21,26-heptaazaheptacyclo[26.2.2.1^{1,26}.1^{13,17}.0^{2,10}.0^{3,8}.0^{18,22}]tetratriaconta-3,5,7,9,13,17(34),18(22),19-octaene-12,16-dione] | –
